Reference: patent publication US20260007597A1, “COMPOSITIONS AND METHODS FOR TREATMENT OF VIRUS-INDUCED AIRWAY FIBROSIS” (priority 2022, published 2026)
Entries after “also recorded” stand apart in the source; their conditions may differ.

Tests used:
[1] = system: pSARS-2 infected NHBE cells (infection-induced cell surface shedding of profibrotic enzymes); format: cell-based, human
[2] = system: Wuhan pSARS infected NHBE supernatants; format: cell-based, human
thrombin = thrombin (Homo sapiens, UniProt P00734); format: biochemical; details: thrombin ~0.2 U/ml; stoichiometric concentration of hirudin
[3] = system: replication competent SARS-COV-2 infected NHBE cells; format: cell-based, human; details: WA-1, beta and delta strains
[4] = system: SARS-COV-2 pseudovirus (pSARS-2) infected NHBE cells; format: cell-based, human; details: inhibitor added during clotting assay (5 U/ml hirudin, 5 μM dabigatran, 5 μM argatroban), turbidity 350 nm / confocal

Row | Compound | fibrin clot formation, inhibitor present during the viral infection [1] | fibrin clotting step, inhibitor added post-infection [2] | thrombin induced fibrin clotting (thrombin) | fibrin clotting induced by replication competent SARS-CoV-2 infection of NHBE cells [3] | infection-induced fibrin clot formation [4]
1 | CNC(=O)[C@H](Cc1ccccc1)NC(=O)[C@H](CC(C)C)[C@H](CSc1cccs1)C(=O)NO [BB-94, batimastat] | significantly reduced; also recorded: inhibited; also recorded: reduced fibrin clot formation | did not inhibit | – | – | –
2 | CC1(C)SCCN(S(=O)(=O)c2ccc(Oc3ccncc3)cc2)[C@H]1C(=O)NO [prinomastat] | significantly reduced; also recorded: inhibited | – | – | – | –
3 | hirudin | – | – | inhibition | inhibited | completely suppressed
4 | CC1CNc2c(cccc2S(=O)(=O)N[C@@H](CCCNC(=N)N)C(=O)N2CC[C@@H](C)C[C@@H]2C(=O)O)C1 (stereo partly shown) [argatroban] | – | – | – | – | inhibited
